Measurements from patent US7951530B2, “Cyclic maltosylmaltose, cyclic maltosymaltose-forming enzyme, their preparation and uses” (Kabushiki Kaisha Hayashibara Seibutsu Kagaku Kenkyujo, priority 2003, dated 2011).

Columns and labels:
[1] = Concentration of CMM in saturated aqueous solution; type: physicochemical; conditions: 25° C.
Method: Successively, the glass vessel was sealed, and the suspension was stirred two days with keeping the temperature at 25° C. to give a saturated solution. After removing the solid CMM by filtrating the saturated solution, the moisture content of the filtrate was measured by the drying loss method to determine the concentration of CMM in saturated solution.

[2] = Thermal stability of CMM; type: physicochemical; conditions: 7% (w/v) CMM, 120° C.; for Purity (%): HPLC
Method: A powdery hydrous crystalline CMM was dissolved in water for preparing an aqueous solution containing 7% (w/v) of CMM. Eight milliliters each of the resulting solution was pored into a glass tube, sealed closely, and then heated at 120° C. for 30 to 90 min. After cooling the solution, the degree of coloring of the solution was measured. Further, the purity of CMM in the solution was measured by HPLC. The degree of coloring was defined as an absorbance at 480 nm using a 1 cm-cell.

[3] = pH stability of CMM; type: physicochemical; conditions: 4% (w/v) CMM, 100° C. for 24 hours
Method: Eight milliliters of each solution was put in a glass tube, sealed and then heated at 100° C. for 24 hours. After cooling the solution, the degree of coloring and the purity of CMM were measured in the same manner in Experiment 17.

[4] = Amino-carbonyl reaction with glycine; type: physicochemical; conditions: […] (w/v) saccharide, 0.5% (w/v) glycine, pH 8.0, 100° C.
Method: (§1) As a control, an aqueous solution containing maltose and glycine was prepared in the same manner using maltose except for the powdery hydrous crystalline CMM. Four milliliters each of the solution was put in a glass tube, sealed and then heated at 100° C. for 30, 60, or 90 min. After cooling the solutions, the degrees of coloring of the solutions were measured to estimate the degree of amino-carbonyl reaction. The degree of coloring was defined as an absorbance at 480 nm using a 1 cm-cell.

[5] = Amino-carbonyl reaction with polypeptone; type: physicochemical; conditions: 5% (w/v) saccharide, 5% (w/v) polypeptone, 120° C., blank subtracted
Method: as §1, with “polypeptone” for “glycine”, “120°” for “100°”, “reaction. As a blank test, a solution containing polypeptone only was heated in the same manner.” for “reaction.”, “cm-cell after subtracting the absorbance of the blank test.” for “cm-cell.”

[6] = Clathrating action of CMM; type: physicochemical; conditions: for strength of clathrating activity in comparison with branched cyclodextrin: on a weight basis
From the text: One hundred grams of the aqueous solution was admixed with 1.2 g of methanol, 1.7 g of ethanol, or 2.2 g of acetic acid as flavor components for allowing CMM to clathrate the flavor components. Successively, each solution was filtrated, and the resulting filtrate was freeze-dried to remove unclathrated flavor component. As a control, “ISOELITE P”, a mixture of branched cyclodextrins commercialized by Maruha Corporation, Tokyo, Japan, which has been known to have a clathrating activity, was tested by the same procedure. In order to measure the amount of flavor component clathrated in the freeze-dried powder, 1 g of each freeze-dried powder was dissolved in 5 ml of water and admixed with 5 ml of diethylether to extract the flavor component, and the extraction was repeated once more. The amount of the extracted flavor component in diethylether was measured by gas-chromatography.

[7] = test system: mice; assay: Acute toxicity test; type: in vivo
From the text: By using mice, CMM obtained by the method in Experiment 14 was orally administrated to the mice for its acute toxicity test. […] Though not so accurate, the value of LD50 of CMM was 5 g/kg-mouse weight or higher.

[8] = Reducing power by the Somogyi-Nelson method; type: physicochemical
From the text: It was concluded that the saccharide was a non-reducing saccharide substantially.

[9] = target: T1, Salivary α-amylase (Homo sapiens, UniProt P0DUB6)
T1 sequence (P0DUB6 16-511): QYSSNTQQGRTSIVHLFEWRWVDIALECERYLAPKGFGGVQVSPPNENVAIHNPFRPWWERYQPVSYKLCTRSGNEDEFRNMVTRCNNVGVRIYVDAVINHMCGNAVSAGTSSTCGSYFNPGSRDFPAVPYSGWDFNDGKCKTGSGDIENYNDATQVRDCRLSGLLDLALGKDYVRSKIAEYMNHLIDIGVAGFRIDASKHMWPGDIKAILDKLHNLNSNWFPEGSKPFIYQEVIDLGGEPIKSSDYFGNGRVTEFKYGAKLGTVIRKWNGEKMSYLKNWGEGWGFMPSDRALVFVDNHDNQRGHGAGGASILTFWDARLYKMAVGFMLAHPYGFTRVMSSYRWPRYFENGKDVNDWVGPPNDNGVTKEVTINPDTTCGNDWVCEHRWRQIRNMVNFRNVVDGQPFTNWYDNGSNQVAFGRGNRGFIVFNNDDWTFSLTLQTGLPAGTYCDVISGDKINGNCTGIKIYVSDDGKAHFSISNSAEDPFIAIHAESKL
From the text: (§2) 43, 23-29 (1990), the digestibility of CMM by salivary α-amylase, artificial gastric juice, pancreas amylase, and small intestinal enzymes were investigated using the powdery hydrous crystalline CMM, obtained by the method in Experiment 14.

[10] = test system: Pancreas α-amylase
From the text: as §2

[11] = test system: Small intestinal enzymes
From the text: as §2

## OC[C@H]1O[C@@H]2OC[C@H]3O[C@H](O[C@H]4[C@H](O)[C@@H](O)[C@@H](OC[C@H]5O[C@H](O[C@H]1[C@H](O)[C@H]2O)[C@H](O)[C@@H](O)[C@@H]5O)O[C@@H]4CO)[C@H](O)[C@@H](O)[C@@H]3O [CMM, cyclo{>6)-α-D-glucopyranosyl-(1>4)-α-D-glucopyranosyl-(1>6)-α-D-glucopyranosyl-(1>4)-α-D-glucopyranosyl-(1>}]
[1]
  saturated concentration of CMM to water: about 8.0 % (w/w)
[2]; heating time 0 min
  Degree of coloring (A480 nm): 0
  Purity (%): 100%
[2]; heating time 30 min
  Degree of coloring (A480 nm): 0
  Purity (%): 100%
[2]; heating time 60 min
  Degree of coloring (A480 nm): 0
  Purity (%): 100%
[2]; heating time 90 min
  Degree of coloring (A480 nm): 0
  Purity (%): 100%
[3]; pH 2.0, Acetate buffer
  Degree of coloring (A480 nm): 0
  Purity (%): 93%
[3]; pH 3.0, Acetate buffer
  Degree of coloring (A480 nm): 0
  Purity (%): 100%
[3]; pH 4.0, Acetate buffer
  Degree of coloring (A480 nm): 0
  Purity (%): 100%
[3]; pH 5.0, Acetate buffer
  Degree of coloring (A480 nm): 0
  Purity (%): 100%
[3]; pH 6.0, Tris-HCl buffer
  Degree of coloring (A480 nm): 0
  Purity (%): 100%
[3]; pH 7.0, Tris-HCl buffer
  Degree of coloring (A480 nm): 0
  Purity (%): 100%
[3]; pH 8.0, Tris-HCl buffer
  Degree of coloring (A480 nm): 0
  Purity (%): 100%
[3]; pH 9.0, Ammonium buffer
  Degree of coloring (A480 nm): 0
  Purity (%): 100%
[4]; heating time 0 min
  Degree of coloring (A480 nm): 0.00
[4]; heating time 30 min
  Degree of coloring (A480 nm): 0.00
[4]; heating time 60 min
  Degree of coloring (A480 nm): 0.00
[4]; heating time 90 min
  Degree of coloring (A480 nm): 0.00
[5]; heating time 0 min
  Degree of coloring (A480 nm): 0.00
[5]; heating time 30 min
  Degree of coloring (A480 nm): 0.00
[5]; heating time 60 min
  Degree of coloring (A480 nm): 0.00
[5]; heating time 90 min
  Degree of coloring (A480 nm): 0.00
[6]; acetic acid
  strength of clathrating activity in comparison with branched cyclodextrin: ~0.8 fold
[6]; ethanol
  strength of clathrating activity in comparison with branched cyclodextrin: ~0.5 fold
[6]; flavor component Acetic acid
  Amount of flavor component clathrated (mg/g-freeze-dried powder): 30.55 mg/g-freeze-dried powder
[6]; flavor component Ethanol
  Amount of flavor component clathrated (mg/g-freeze-dried powder): 4.20 mg/g-freeze-dried powder
[6]; flavor component Methanol
  Amount of flavor component clathrated (mg/g-freeze-dried powder): 4.30 mg/g-freeze-dried powder
[6]; methanol
  strength of clathrating activity in comparison with branched cyclodextrin: about 1.3 folds
[7]; oral administration at the highest possible dose
  mortality: no mouse died
[7]; oral administration, mice, though not so accurate
  LD50: ≥ 5 g/kg-mouse weight
[8]
  reducing power: less than the measurable limit
[9]
  Degradation rate (%): 0%
[10]
  Degradation rate (%): 0%
[11]
  Degradation rate (%): 0%
